How the values were obtained:
Type in all cases: in vivo
[1] = test system: Amaranthus retroflexus (AMARE); assay: Post-emergence herbicidal action, greenhouse pot test; conditions: rated visually after about 3 weeks vs untreated controls, 100% = plants have died
In short: (§1)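 Greenhouse-grown weeds in sandy loam were sprayed post-emergence at the one-leaf stage, 2–3 weeks after sowing. Compounds were formulated as WP or EC in water with 0.5% additive at 600 l/ha, at rates of 20 g/ha or less. Visual rating after about 3 weeks used a scale from 0% (like untreated control) to 100% (plants dead).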

[2] = test system: Pharbitis purpurea (PHBPU); assay: as above
In short: as §1

Veronica persica (VERPE) = assay: as above
In short: as §1

Viola tricolor (VIOTR) = assay: as above
In short: as §1

[3] = test system: Polygonum convolvulus (POLCO); assay: as above
In short: as §1

Avena fatua (AVEFA) = assay: as above; conditions: 20 g/ha, rated visually after about 3 weeks vs untreated controls, 100% = plants have died
In short: as §1

[4] = test system: Abutilon theophrasti (ABUTH); assay: as above; conditions: rated visually after about 3 weeks vs untreated controls, 100% = plants have died
In short: as §1

Zea mays (ZEAMX) = assay: Post-emergence crop plant compatibility, greenhouse pot test; conditions: 1.25 g/ha, vs untreated controls
In short: (§2)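 Crop plants grown in sandy loam in the greenhouse were sprayed post-emergence at the one-leaf stage, 2–3 weeks after sowing, with WP or EC formulations as aqueous suspension/emulsion plus 0.5% additive at 600 l/ha. Damage was rated visually about 3 weeks later versus untreated controls (0% = like control, 100% = plants dead).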

[5] = test system: Triticum aestivum (TRZAS); assay: as above; conditions: vs untreated controls
In short: as §2

Oryza sativa (ORYSA) = assay: Post-emergence crop plant compatibility, greenhouse pot test (also comparative test C); conditions: vs untreated controls
In short: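 Rice and other crops sprayed post-emergence at one-leaf stage (2–3 weeks after sowing) with WP or EC formulations plus 0.5% additive at 600 l/ha water. Visual rating about 3 weeks later versus untreated controls (100% = dead, 0% = like control); suffixes a–c denote different doses.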

[6] = test system: Echinochloa crus-galli (ECHCG); assay: Post-emergence herbicidal action, greenhouse pot test (also comparative test C)
In short: (§3)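 Greenhouse pot plants in sandy loam were sprayed post-emergence at the one-leaf stage (2–3 weeks after sowing) with WP or EC formulations plus 0.5% additive at 600 l/ha water. Activity was rated visually after about 3 weeks versus untreated controls (100% = dead, 0% = like control); rates were 20 g/ha or less, and 5 g/ha or less in the comparative test.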

[7] = test system: Matricaria inodora (MATIN); assay: as above
In short: as §3

Setaria viridis (SETVI) = assay: as above
In short: as §3

[8] = test system: Alopecurus myosuroides (ALOMY); assay: as above; conditions: rated visually after about 3 weeks vs untreated controls, 100% = plants have died
In short: as §3

Cn1c(C(F)(F)F)cc(=O)n(-c2cc(Oc3ccccc3OCC(=O)OCCOC(F)(F)F)c(Br)cc2F)c1=O [I.8-41]
0%: Post-emergence action against TRZAS (crop plant compatibility) ([5]; 1.25 g/ha) | Post-emergence action against ORYSA (crop plant compatibility) (Oryza sativa (ORYSA); 1.25 g/ha)
20%: Post-emergence action against ZEAMX (crop plant compatibility) (Zea mays (ZEAMX)) | Post-emergence action against TRZAS (crop plant compatibility) ([5]; 5 g/ha) | Post-emergence action against ORYSA (crop plant compatibility) (Oryza sativa (ORYSA); 5 g/ha)
80%: Post-emergence action against POLCO in % ([3]; dosage 1.25 g/ha) | Post-emergence action at 20 g/ha against AVEFA in % (Avena fatua (AVEFA)) | Post-emergence action at 1.25 g/ha against ABUTH in % ([4]; 1.25 g/ha) | Post-emergence action at 5 g/ha against ALOMY in % ([8]; 5 g/ha)
100%: Post-emergence action at 1.25 g/ha against AMARE in % ([1]; 1.25 g/ha) | Post-emergence action at 5 g/ha against AMARE in % ([1]; 5 g/ha) | Post-emergence action at 20 g/ha against AMARE in % ([1]; 20 g/ha) | Post-emergence action against PHBPU in % ([2]; dosage 1.25 g/ha) | Post-emergence action against PHBPU in % ([2]; dosage 5 g/ha) | Post-emergence action against PHBPU in % ([2]; dosage 20 g/ha) | Post-emergence action against VERPE (Veronica persica (VERPE); 5 g/ha) | Post-emergence action against VERPE (Veronica persica (VERPE); 20 g/ha) | Post-emergence action against VIOTR (Viola tricolor (VIOTR); 1.25 g/ha) | Post-emergence action against VIOTR (Viola tricolor (VIOTR); 5 g/ha) | Post-emergence action against VIOTR (Viola tricolor (VIOTR); 20 g/ha) | Post-emergence action against POLCO in % ([3]; dosage 20 g/ha) | Post-emergence action at 5 g/ha against ABUTH in % ([4]; 5 g/ha) | Post-emergence action at 20 g/ha against ABUTH in % ([4]; 20 g/ha) | Post-emergence action against ECHCG in % ([6]; dosage 20 g/ha) | Post-emergence action against MATIN in % ([7]; dosage 20 g/ha) | Post-emergence action against SETVI (Setaria viridis (SETVI); 20 g/ha) | Post-emergence action against SETVI in % (Setaria viridis (SETVI); dosage 1.25 g/ha) | Post-emergence action against SETVI in % (Setaria viridis (SETVI); dosage 5 g/ha) | Post-emergence action at 20 g/ha against ALOMY in % ([8]; 20 g/ha)
90%: Post-emergence action against POLCO in % ([3]; dosage 5 g/ha) | Post-emergence action against ECHCG in % ([6]; dosage 5 g/ha) | Post-emergence action against MATIN in % ([7]; dosage 1.25 g/ha) | Post-emergence action against MATIN in % ([7]; dosage 5 g/ha)
